Data on one molecule can be found in patent publication US20050130968A1, “Fungicidal 4-(2-aminopyridin-4-yl)-N-phenyl-1,3,5-triazin-2-amine derivatives” (priority 2003, published 2005).

One data set deals with Leptosphaeria nodorum. Briefly: Glume Blotch of Wheat 1-day protectant test (LEPTNO). As to conditions: Parastagonospora nodorum, topical, 24 h; one-day protectant test, 200 ppm application rate, wheat plants (variety Yuma); read-out: LEPTINO control of disease. Type of data set: in vivo. The protocol:
The technical compounds were formulated at 200 ppm in 10 vol. acetone plus 90 vol. Triton X water (deionized water 99.99 wt. % +0.01 wt. Triton X100), giving a “formulated test compound.” The compounds were tested for ability to control plant diseases at the whole plant level in a 1-day protectant test (IDP). Formulated test compounds were applied to plants using a turn table sprayer fitted with two opposing air atomization nozzles which delivered approximately 1500 L/ha of spray volume. Plants were inoculated with spores of the fungus the next day, then incubated in an environment conducive to disease development. Disease severity was evaluated 4 to 19 days later, depending on the speed of disease development. Glume Blotch of Wheat (causal agent Leptosphaeria nodorum=Stagnospora nodorum; Bayer code […]): Wheat plants (variety Yuma) were grown from seed in a 50% pasteurized soil/50% soil-less mix until the seedlings had fully expanded first leaf. Each pot contains 3-20 seedlings. These plants were sprayed until wet with the formulated test compound at a rate of 200 ppm. On the following day, the leaves were inoculated with an aqueous spore suspension of Leptosphaeria nodorum and the plants were kept in high humidity (one day in a dark dew chamber followed by four to seven days in a lighted dew chamber) to permit spores to germinate and infect the leaf. The plants were then transferred to a greenhouse until disease developed on untreated control plants. The following table presents the activity of typical compounds of the present invention when evaluated in these experiments. The effectiveness of the test compounds in controlling disease was determined by assessing the severity of disease on treated plants, then converting the severity to percent control based on the level of disease on untreated, inoculated plants.

A further data set concerns Puccinia triticina. Briefly: Leaf Rust of Wheat 1-day protectant test (PUCCRT). Type of data set: in vivo. As to conditions: topical, 24 h, one-day protectant test, 200 ppm application rate, wheat plants (variety Yuma), read-out: PUCCRT control of disease. The protocol: The technical compounds were formulated at 200 ppm in 10 vol. acetone plus 90 vol. Triton X water (deionized water 99.99 wt. % +0.01 wt. Triton X100), giving a “formulated test compound.” The compounds were tested for ability to control plant diseases at the whole plant level in a 1-day protectant test (IDP). Formulated test compounds were applied to plants using a turn table sprayer fitted with two opposing air atomization nozzles which delivered approximately 1500 L/ha of spray volume. Plants were inoculated with spores of the fungus the next day, then incubated in an environment conducive to disease development. Disease severity was evaluated 4 to 19 days later, depending on the speed of disease development. […] Each pot contained 3-8 seedlings. These plants were sprayed until wet with the formulated test compounds at a rate of 200 ppm. On the following day, the leaves were inoculated with an aqueous spore suspension of Puccinia triticina and the plants were kept in high humidity overnight to permit spores to germinate and infect the leaf. The plants were then transferred to a greenhouse until disease developed on untreated control plants. The following table presents the activity of typical compounds of the present invention when evaluated in these experiments. The effectiveness of the test compounds in controlling disease was determined by assessing the severity of disease on treated plants, then converting the severity to percent control based on the level of disease on untreated, inoculated plants.

The subject of the next data set is Pyricularia oryzae. Briefly: whole plant or invertebrate. In kind it is in vivo. As to conditions: topical, 24 h, read-out: PYRIOR control of disease.
The subject of a further data set is Septoria tritici. Briefly: Speckled Leaf Blotch of Wheat 1-day protectant test (SEPTTR). As to conditions: Zymoseptoria tritici, topical, 24 h; one-day protectant test, 200 ppm application rate, wheat plants (variety Monon); read-out: SEPTTR control of disease. Type of data set: in vivo. The protocol: The technical compounds were formulated at 200 ppm in 10 vol. acetone plus 90 vol. Triton X water (deionized water 99.99 wt. % +0.01 wt. Triton X100), giving a “formulated test compound.” The compounds were tested for ability to control plant diseases at the whole plant level in a 1-day protectant test (IDP). Formulated test compounds were applied to plants using a turn table sprayer fitted with two opposing air atomization nozzles which delivered approximately 1500 L/ha of spray volume. Plants were inoculated with spores of the fungus the next day, then incubated in an environment conducive to disease development. Disease severity was evaluated 4 to 19 days later, depending on the speed of disease development. Speckled Leaf Blotch of Wheat (Mycosphaerella graminicola=Septoria tritici; Bayer code […]): Wheat plants (variety Monon) were grown from seed in a greenhouse in 50% pasteurized soil/50% soil-less mix until the first true leaf was fully expanded, with 3-8 seedlings per pot. These plants were sprayed until wet with the formulated test compound at a rate of 200 ppm. On the following day, the leaves were inoculated with an aqueous spore suspension of Septoria tritici and the plants were kept in high humidity (one day in a dark dew chamber followed by four to seven days in a lighted dew chamber) to permit spores to germinate and infect the leaf. The plants were then transferred to a greenhouse until disease developed on untreated control plants. The following table presents the activity of typical compounds of the present invention when evaluated in these experiments. The effectiveness of the test compounds in controlling disease was determined by assessing the severity of disease on treated plants, then converting the severity to percent control based on the level of disease on untreated, inoculated plants.

Another data set relates to Cochliobolus sativus. Briefly: Spot Blotch of Wheat 1-day protectant test (COCHSA). Type of data set: in vivo. As to conditions: Bipolaris sorokiniana, 24 h; one-day protectant test, 200 ppm application rate, wheat plants (variety Yuma); read-out: COCHSA control of disease. The protocol: The technical compounds were formulated at 200 ppm in 10 vol. acetone plus 90 vol. Triton X water (deionized water 99.99 wt. % +0.01 wt. Triton X100), giving a “formulated test compound.” The compounds were tested for ability to control plant diseases at the whole plant level in a 1-day protectant test (IDP). Formulated test compounds were applied to plants using a turn table sprayer fitted with two opposing air atomization nozzles which delivered approximately 1500 L/ha of spray volume. Plants were inoculated with spores of the fungus the next day, then incubated in an environment conducive to disease development. Disease severity was evaluated 4 to 19 days later, depending on the speed of disease development. […] Each pot contained 3-8 seedlings. These plants were sprayed until wet with the formulated test compound at a rate of 200 ppm. On the following day, the leaves were inoculated with an aqueous spore suspension of Cochliobolus sativus and the plants were kept in high humidity for one to two days to permit spores to germinate and infect the leaf. The plants were then transferred to a greenhouse until disease developed on untreated control plants. The following table presents the activity of typical compounds of the present invention when evaluated in these experiments. The effectiveness of the test compounds in controlling disease was determined by assessing the severity of disease on treated plants, then converting the severity to percent control based on the level of disease on untreated, inoculated plants.

In the next data set the test system is Colletotricum lagenarium. Briefly: Cucumber Anthracnose 1-day protectant test (COLLLA). As to conditions: Cucumis sativus, topical, 24 h; one-day protectant test, 200 ppm application rate, cucumber plants (variety Bush Champion); read-out: COLLLA control of disease. Type of data set: in vivo. The protocol:
The technical compounds were formulated at 200 ppm in 10 vol. acetone plus 90 vol. Triton X water (deionized water 99.99 wt. % +0.01 wt. Triton X100), giving a “formulated test compound.” The compounds were tested for ability to control plant diseases at the whole plant level in a 1-day protectant test (IDP). Formulated test compounds were applied to plants using a turn table sprayer fitted with two opposing air atomization nozzles which delivered approximately 1500 L/ha of spray volume. Plants were inoculated with spores of the fungus the next day, then incubated in an environment conducive to disease development. Disease severity was evaluated 4 to 19 days later, depending on the speed of disease development. Cucumber Anthracnose (causal agent Colletotricum lagenarium; Bayer code COLLLA): Cucumber plants (variety Bush Champion) were grown from seed in a soilless peat-based potting mixture (Metromix) until the first true leaf was 20-80% expanded. Each pot contained 1 seedling. These plants were sprayed until wet with the formulated test compound at a rate of 200 ppm. On the following day, the leaves were inoculated with an aqueous spore suspension of Colletotricum lagenarium and the plants were kept in high humidity for one day to permit spores to germinate and infect the leaf. The plants were then transferred to a growth chamber until disease developed on untreated control plants. The following table presents the activity of typical compounds of the present invention when evaluated in these experiments. The effectiveness of the test compounds in controlling disease was determined by assessing the severity of disease on treated plants, then converting the severity to percent control based on the level of disease on untreated, inoculated plants.

As to `Clc1cccc(Nc2ncnc(-c3ccnc(N4CCCCC4)c3)n2)c1` [Compound 7, N-(3-chlorophenyl)-4-(2-piperidin-1-ylpyridin-4-yl)-1,3,5-triazin-2-amine], the melting point fell in the range of 168 to 169 °C. Also, in the data set with Leptosphaeria nodorum, the pest or weed control at 200 ppm was in the range of 50 to 89%. The pest or weed control at 200 ppm in the data set on Puccinia triticina fell in the range of 21 to 49%. In the data set on Pyricularia oryzae, the pest or weed control at 200 ppm was less than 20%. The pest or weed control at 200 ppm in the data set on Septoria tritici was in the range of 50 to 89%. The pest or weed control at 200 ppm in the data set on Cochliobolus sativus was in the range of 21 to 49%. Also, the pest or weed control at 200 ppm in the data set with Colletotricum lagenarium was less than 20%.
